In paper PMC12163657 (ACS Omega, 2025):
Numbering of substitutions follows the chain as printed.

What was measured:
[1] = target: T1, ERα LBD (Homo sapiens, UniProt P03372); experiment: LanthaScreen TR-FRET ERα competitive binding assay
T1 sequence (P03372 311-547 limits assumed): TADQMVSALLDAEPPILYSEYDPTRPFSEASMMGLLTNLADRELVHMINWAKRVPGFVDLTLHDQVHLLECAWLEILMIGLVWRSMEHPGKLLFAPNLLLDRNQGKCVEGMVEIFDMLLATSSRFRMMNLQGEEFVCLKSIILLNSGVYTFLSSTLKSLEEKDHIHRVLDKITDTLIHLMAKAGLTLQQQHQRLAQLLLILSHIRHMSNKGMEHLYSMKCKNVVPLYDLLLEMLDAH

[2] = target: T2, ERα (Homo sapiens, UniProt P03372); experiment: Alkaline phosphatase; type: cell-based
T2 sequence (P03372 1-595): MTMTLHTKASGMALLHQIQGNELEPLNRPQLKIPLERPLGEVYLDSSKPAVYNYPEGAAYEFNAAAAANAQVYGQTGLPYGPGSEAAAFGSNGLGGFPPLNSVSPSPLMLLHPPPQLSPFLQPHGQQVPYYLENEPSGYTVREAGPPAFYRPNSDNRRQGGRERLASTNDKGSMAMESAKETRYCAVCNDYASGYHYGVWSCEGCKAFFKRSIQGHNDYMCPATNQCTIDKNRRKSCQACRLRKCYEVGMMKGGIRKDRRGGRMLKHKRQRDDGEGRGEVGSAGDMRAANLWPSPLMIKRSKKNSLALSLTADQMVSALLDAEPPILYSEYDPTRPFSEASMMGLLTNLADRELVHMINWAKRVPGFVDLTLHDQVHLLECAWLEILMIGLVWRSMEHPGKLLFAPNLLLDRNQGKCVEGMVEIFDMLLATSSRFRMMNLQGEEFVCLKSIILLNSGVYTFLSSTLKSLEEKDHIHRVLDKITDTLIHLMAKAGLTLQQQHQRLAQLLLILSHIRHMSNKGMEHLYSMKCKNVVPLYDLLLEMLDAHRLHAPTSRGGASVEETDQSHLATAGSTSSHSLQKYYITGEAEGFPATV

[3] = Mouse hepatocyte stability; type: in vitro ADME; settings: hepatocytes
[4] = Plasma protein binding, rapid equilibrium dialysis, mouse plasma; type: in vitro ADME; settings: undiluted plasma
[5] = Plasma protein binding, rapid equilibrium dialysis, dog plasma; type: in vitro ADME
[6] = Plasma protein binding, rapid equilibrium dialysis, cyno plasma; type: in vitro ADME, cynomolgus monkey
[7] = Plasma protein binding, rapid equilibrium dialysis, human plasma; type: in vitro ADME
[8] = target: T2, ERα; experiment: Reporter assay of gene transcription activity, ERα; type: cell-based
[9] = target: T3, ESR1 WT (Homo sapiens, UniProt P03372); experiment: AP; type: cell-based
T3 sequence (P03372 1-595): T2 sequence (P03372 1-595)

[10] = target: T4, ESR1 Asp538Gly (Homo sapiens, UniProt P03372, D538G); experiment: AP; type: cell-based
T4 sequence (P03372 1-595 D538G): T2 sequence (P03372 1-595) with D538G

[11] = target: T5, ESR1 Tyr537Ser (Homo sapiens, UniProt P03372, Y537S); experiment: AP; type: cell-based
T5 sequence (P03372 1-595 Y537S): T2 sequence (P03372 1-595) with Y537S

[12] = tested on: CAMA-1 ESR1 WT cells; experiment: CAMA-1 cell proliferation, ESR1 WT; type: cell-based; settings: Homo sapiens, CAMA-1, read-out: CAMA-1 cell prolif. pIC50 (converted)
[13] = target: CYP 3A4 (Homo sapiens, UniProt P08684); experiment: CYP inhibition in human liver microsomes; type: in vitro ADME
CYP 3A4, sequence (P08684 whole entry): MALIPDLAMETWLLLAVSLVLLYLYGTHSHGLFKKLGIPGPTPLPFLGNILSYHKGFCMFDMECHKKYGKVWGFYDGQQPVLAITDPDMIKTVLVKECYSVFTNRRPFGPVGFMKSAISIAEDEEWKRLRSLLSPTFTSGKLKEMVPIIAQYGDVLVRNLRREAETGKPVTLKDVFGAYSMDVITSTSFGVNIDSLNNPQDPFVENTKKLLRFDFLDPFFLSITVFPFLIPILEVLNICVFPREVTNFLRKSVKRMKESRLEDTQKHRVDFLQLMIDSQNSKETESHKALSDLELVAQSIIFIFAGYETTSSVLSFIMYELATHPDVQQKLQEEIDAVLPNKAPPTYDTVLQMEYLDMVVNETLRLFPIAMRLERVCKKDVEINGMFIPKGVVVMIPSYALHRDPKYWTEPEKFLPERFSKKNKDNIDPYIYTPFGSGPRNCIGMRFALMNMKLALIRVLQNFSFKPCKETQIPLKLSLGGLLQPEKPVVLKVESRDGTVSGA

[14] = target: hERG ion channels (Homo sapiens, UniProt Q12809); experiment: hERG patch clamp assay; type: cell-based; settings: at 30 μM
hERG ion channels, sequence (Q12809 whole entry): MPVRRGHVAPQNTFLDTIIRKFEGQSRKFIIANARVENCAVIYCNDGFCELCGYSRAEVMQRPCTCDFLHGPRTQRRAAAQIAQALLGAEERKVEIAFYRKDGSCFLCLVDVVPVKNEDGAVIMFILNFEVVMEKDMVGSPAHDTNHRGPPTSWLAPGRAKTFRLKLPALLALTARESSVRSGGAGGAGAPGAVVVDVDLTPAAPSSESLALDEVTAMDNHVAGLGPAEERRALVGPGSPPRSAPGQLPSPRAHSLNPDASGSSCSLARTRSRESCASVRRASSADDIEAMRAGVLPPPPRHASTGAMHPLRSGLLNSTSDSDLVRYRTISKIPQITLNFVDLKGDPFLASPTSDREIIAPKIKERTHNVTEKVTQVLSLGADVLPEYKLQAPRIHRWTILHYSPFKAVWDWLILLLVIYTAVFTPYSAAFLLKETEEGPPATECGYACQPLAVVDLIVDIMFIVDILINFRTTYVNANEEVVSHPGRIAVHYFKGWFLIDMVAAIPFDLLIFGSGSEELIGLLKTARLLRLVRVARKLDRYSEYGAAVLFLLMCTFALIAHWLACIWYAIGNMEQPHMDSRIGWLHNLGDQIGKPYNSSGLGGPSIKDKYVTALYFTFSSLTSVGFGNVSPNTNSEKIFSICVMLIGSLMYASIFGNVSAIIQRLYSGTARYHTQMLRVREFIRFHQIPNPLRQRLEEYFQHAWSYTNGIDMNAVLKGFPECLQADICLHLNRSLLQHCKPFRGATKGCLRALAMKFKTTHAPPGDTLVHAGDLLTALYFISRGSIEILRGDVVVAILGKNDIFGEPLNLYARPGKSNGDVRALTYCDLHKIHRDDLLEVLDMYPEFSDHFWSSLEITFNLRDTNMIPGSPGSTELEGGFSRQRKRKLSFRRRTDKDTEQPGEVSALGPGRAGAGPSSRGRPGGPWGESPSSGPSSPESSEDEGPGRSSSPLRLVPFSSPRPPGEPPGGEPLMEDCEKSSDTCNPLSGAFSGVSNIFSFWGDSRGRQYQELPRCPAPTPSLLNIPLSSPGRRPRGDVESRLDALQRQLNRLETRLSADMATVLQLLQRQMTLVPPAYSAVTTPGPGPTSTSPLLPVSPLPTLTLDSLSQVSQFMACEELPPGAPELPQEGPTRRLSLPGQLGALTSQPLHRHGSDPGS

[15] = Single-dose pharmacokinetics, monkey; type: in vivo; settings: serum

In the case of `CCCN1CC(Oc2ccc([C@@H]3c4[nH]c5ccccc5c4C[C@@H](C)N3CC(C)(C)F)cc2)C1` [compound 21, (1R,3R)-2-(2-Fluoro-2-methylpropyl)-3-methyl-1-(4-((1-propylazetidin-3-yl)oxy)phenyl)-2,3,4,9-tetrahydro-1H-pyrido[3,4-b]indole], the IC50 [1] is reported as 2 nM, the IC50 [2] is reported as 3.16 nM and the half-life [3] is reported as > 6 h. For the same molecule, the hepatocyte CLint [3] was < 3.9 µL/min/1e6 cells, the fraction unbound at 4 h, 1 µM [4] was 0.0006 and the “Plasma free drug percentage” value [5] was 0.04%. For the same molecule, the “Plasma free drug percentage” value [6] was 0.13%, the plasma protein-bound ([7]; across all species, including humans) was > 99% and the “Plasma free drug percentage” value ([7]; hu plasma) was 0.08%. The IC50 ([8]; ERα pIC50, agonist mode, agonist mode) was > 3160 nM, the IC50 ([8]; ERα pIC50, antag. mode, antag. mode) was 1 nM and the IC50 [9] was 2.51 nM. It also gave an IC50 [10] of 31.6 nM, an IC50 [11] of 50.1 nM and an IC50 [12] of 1.58 nM. The IC50 [13] was > 10000 nM, the hERG inhibition [14] was “did not inhibit” and the AUC ([15]; iv, 3 mg/kg) was 3420 ng·h/mL. It also gave a Cmax ([15]; iv, 3 mg/kg) of 651 ng/mL, a Vd ([15]; iv, 3 mg/kg) of 49 L/kg and a clearance ([15]; iv, 3 mg/kg) of 13.3 mL/min/kg. For the same molecule, the half-life ([15]; iv, 3 mg/kg) was 42 h, the AUC ([15]; po, 10 mg/kg) was 5090 ng·h/mL and the Cmax ([15]; po, 10 mg/kg) was 170 ng/mL. The Tmax ([15]; po, 10 mg/kg) was 8 h, the bioavailability ([15]; po, 10 mg/kg) was 44.4% and the half-life ([15]; po, 10 mg/kg) was 34 h.
